From patent publication US7605241B2, “Synthesis of inhibitors of p90Rsk” (University of Virginia Patent Foundation, priority 2005, dated 2009)
pIC50: −log10 of the molar value.

Columns and labels:
PKC = details: upstream kinase; cited from earlier work
Raf = details: upstream kinase; cited from earlier work
MEK = details: upstream kinase; cited from earlier work
p90 RSK = p90 RSK (Homo sapiens, UniProt P51812); assay: inhibition of the kinase activity of p90 RSK (Table 1); format: biochemical
Text: Methods for testing the ability of SL0101, and analogs and derivatives thereof, synthesized according to the methods disclosed herein, to inhibit p90 ribosomal S6 kinase (RSK) activity and cellular and metabolic processes downstream from RSK activity, are known to those of ordinary skill in the art. Some specific assays are provided in citation number 5 (Smith et al., Cancer Res., 2005, 65:1027), which is incorporated by reference in its entirety. The assays include various kinase assays, cell cycle analysis, gene silencing, and analysis of cells and tissues in vitro and in vivo.
Some specific assays are provided in citation number 5 (Smith et al., Cancer Res., 2005, 65:1027), which is incorporated by reference in its entirety.

Chain of p90 RSK (P51812 whole entry): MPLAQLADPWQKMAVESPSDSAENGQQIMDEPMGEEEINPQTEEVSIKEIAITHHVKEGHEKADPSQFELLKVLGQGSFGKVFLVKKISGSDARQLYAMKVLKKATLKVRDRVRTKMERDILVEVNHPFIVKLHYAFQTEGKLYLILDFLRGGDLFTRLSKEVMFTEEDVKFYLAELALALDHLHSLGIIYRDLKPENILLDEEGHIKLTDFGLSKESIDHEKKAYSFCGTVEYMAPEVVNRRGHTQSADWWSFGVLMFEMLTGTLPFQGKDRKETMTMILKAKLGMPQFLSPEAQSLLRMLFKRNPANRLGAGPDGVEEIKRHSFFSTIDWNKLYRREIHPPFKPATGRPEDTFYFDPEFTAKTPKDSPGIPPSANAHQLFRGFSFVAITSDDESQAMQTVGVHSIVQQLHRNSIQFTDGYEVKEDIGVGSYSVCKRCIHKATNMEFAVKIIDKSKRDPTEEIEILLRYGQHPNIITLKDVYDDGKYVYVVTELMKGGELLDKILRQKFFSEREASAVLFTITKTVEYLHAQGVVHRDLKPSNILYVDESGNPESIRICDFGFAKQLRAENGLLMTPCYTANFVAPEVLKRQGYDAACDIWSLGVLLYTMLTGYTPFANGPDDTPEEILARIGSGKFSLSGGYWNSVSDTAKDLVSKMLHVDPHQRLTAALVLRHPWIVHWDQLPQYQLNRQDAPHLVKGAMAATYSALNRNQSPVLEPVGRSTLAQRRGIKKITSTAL

CC(=O)OC1C(C)OC(Oc2c(-c3ccc(O)cc3)oc3cc(O)cc(O)c3c2=O)C(O)C1OC(C)=O (centres unmarked) [SL0101-1]
inhibition of PKC (PKC): not to inhibit | inhibition of Raf (Raf): not to inhibit | inhibition of MEK (MEK): not to inhibit

CC(=O)OC1C(C)OC(Oc2c(-c3ccc(O)cc3)oc3cc(O)cc(O)c3c2=O)C(O)C1O (centres unmarked) [SL0101-2]
pIC50 (p90 RSK): 6.72

CC(=O)OC1C(C)OC(Oc2c(-c3ccc(O)cc3)oc3cc(O)cc(O)c3c2=O)C(OC(C)=O)C1O (centres unmarked) [SL0101-3]
pIC50 (p90 RSK): 6.24
